Assay results as given in patent US10106627B2, “Process for the preparation of polymeric biosurfactants” (priority 2014, dated 2018).

Key:
[1] = tested on: intracellular reactive oxygen species (ROS) in RAW 264.7 macrophages; assay: LPS-induced intracellular ROS (DCFH-DA) in RAW 264.7 macrophages; type: cell-based, mouse; details: 20 μg ml^−1; LPS 100 ng/ml 24 h; LPS alone 78.97%
Description: The inhibition of intracellular reactive oxygen species (ROS) by Brevisan, Microsan and M-EPS-Au-NP in RAW 264.7 macrophages was measured using the oxygen free radical acceptor 2,7,-dichlorofluorescein diacetate (DCFH-DA) [Wang, H., and Joseph J. A. (1999) Free. […] The RAW-264.7 macrophages (2×10^6 cells/well in 24-well plate) were treated with Brevisan, Microsan and M-EPS-Au-NP at various concentrations and then stimulated with 100 ng/ml LPS for 24 h using N-acetylcysteine (NAC, 10 mM) as a ROS inhibitor. The DCF formed by intracellular ROS was measured at 485 nm excitation and 520 nm emission wavelengths using a Hitachi spectrofluorimeter. The experiments were run in triplicates and reported as the percentage of intracellular ROS formed.

[2] = tested on: C3 complement component in RAW 264.7 macrophages; assay: LPS-induced C3 complement component production ELISA in RAW 264.7 macrophages; type: cell-based, mouse; details: 1, 10, 20 and 50 μg/ml; LPS 100 ng ml^−1 24 h
Description: The effect of Brevisan, Microsan and M-EPS-Au-NP on C3 complement component was measured using ELISA kits (Antibodies, Atlanta, USA). RAW 264.7 cells were treated with Brevisan, Microsan and M-EPS-Au-NP at 1, 10, 20 and 50 μg/ml, respectively, and then stimulated with 100 ng ml^−1 of LPS. After incubating for 24 h, 50 μl of supernatant was collected and added to each well in an antibody coated 96-well plate. After I h, the wells were washed with PBS and incubated with 100 μl of horse radish peroxidase (HRP)-conjugate for 1 h at 37° C. and then incubated with 50 μl of O-phenylenediamine (0.2% w/v in 0.017 M citrate phosphate buffer, pH 6) and 50 μl of 0.015% hydrogen peroxide for 15 min and the reaction was stopped by adding 50 μl of 12.5% sulphuric acid and the optical density was measured at 450 nm using Biotek EIA Reader (Biotek Instruments, Inc., VT, USA). The results shown are the average of three independent experiments. Further, the hemolytic activity of the secreted C3 was measured as described earlier [Gasque, P., Julen, N., Ischenko, A. M., Picot, C., Mauger, C., Chauzy, C., Ripoche, J. and Fontaine, M. (1992) J. Immunol. 149, 1381-1389]. […] Then 1.5 ml of PBS was added, centrifuged at 10,000 rpm for 5 min and the hemoglobin released present in the supernatant was quantified by measuring the absorbance at 415 nm. […]

[3] = Emulsification index (EI24); type: physicochemical; details: 24 h
Description: The surface tension of the purified Microsan from Microbacterium sp. strain BS-2 and Brevisan from Brevibacillus sp. strain BS-207 was measured by Wilhelmy plate method using a Du-Nouy K100MK2 Processor Tensiometer (Krüss, Hamburg, Germany) which reduced the surface tension of water from 72 to 31.2 mN m^−1. The interfacial tension value was measured by Du-Nouy ring method and it was determined as 25.7 mN m. The critical micelle concentration (CMC) was measured by plotting the concentration of EPS as a function of surface tension. The CMC is the point where the slope of the curve abruptly changed was determined as 75 mg l^−1. The emulsification index (EI24) was determined by the addition of 4 ml of culture supernatant to 6 ml of various hydrocarbons (N-Hexadecane, tridecane, hexane, toluene and xylene) and oils (mineral oil and soybean oil) and the mixtures were vortexed for 2 min and allowed to stand for 24 h. The emulsification index (EI24) values expressed as the percentage of height of emulsified layer to the height of total liquid column.

[4] = tested on: Staphylococcus aureus MLS16 MTCC 2940; assay: Microtiter broth dilution MIC; type: cell-based; details: Staphylococcus aureus MLS16 MTCC 2940, 24 h, 35° C.
Description: (§1) The antimicrobial activity of Microsan and M-EPS-Au-NP was determined using the microtiter broth dilution method [Kumar, C. G. and Mamidyala, S. K. (2011) Coll. Surf B: Biointerf. 84, 462-466]. Different bacterial pathogens (10^7 cfu ml^−1 cells) were inoculated in 100 μl of Muller-Hinton broth. Different concentrations of Microsan, M-EPS-Au-NP and Brevisan were added to each strain and incubated for 24 h at 35° C. After incubation, 40 μl of p-iodonitrotetrazolium (INT, Sigma) dye (0.02%, 20 mg INT dissolved in 100 ml of 40% dimethyl formamide was added to each well and incubated for 2 h. The reduction of p-iodonitrotetrazolium was spectroscopically measured at 450 nm using TRIAD multimode reader (Dynex Technologies, Inc., Chantilly, Va.) to determine the minimum inhibitory concentration (MIC) values. Commercially available surfactin (CAS 24730-31-2; Sigma-Aldrich) and laminarin (CAS No 9008-22-4; Sigma-Aldrich) used as positive controls were run in parallel for comparison. The MIC values of Microsan and M-EPS-Au-NP observed against the tested bacterial strains are shown in Table 3.

[5] = tested on: Escherichia coli MTCC 739; assay: Microtiter broth dilution MIC; type: cell-based; details: Escherichia coli MTCC 739, 24 h, 35° C.
Description: as §1

[6] = tested on: Pseudomonas aeruginosa MTCC 2453; assay: Microtiter broth dilution MIC; type: cell-based; details: Pseudomonas aeruginosa MTCC 2453, 24 h, 35° C.
Description: as §1

[7] = tested on: Micrococcus luteus MTCC 2470; assay: Microtiter broth dilution MIC; type: cell-based; details: Micrococcus luteus MTCC 2470, 24 h, 35° C.
Description: as §1

β-D-glucuronyl-(1-2)-D-mannosyl-(1-4)-D-glucose [Microsan]
LPS-induced ROS levels after treatment [1]: 55.71% | inhibition of C3 complement component production [2]: did not inhibit | emulsification index (EI24) ([3]; N-hexadecane): 67% | emulsification index (EI24) ([3]; hexane): 83.7% | emulsification index (EI24) ([3]; mineral oil): 71.9% | emulsification index (EI24) ([3]; soybean oil): 63% | emulsification index (EI24) ([3]; toluene): 74.9% | emulsification index (EI24) ([3]; tridecane): 77% | emulsification index (EI24) ([3]; xylene): 66.89% | Minimum inhibitory concentration (MIC) [4]: 4.68 µg/mL | Minimum inhibitory concentration (MIC) [5]: >300 µg/mL | Minimum inhibitory concentration (MIC) [6]: >300 µg/mL | Minimum inhibitory concentration (MIC) [7]: >300 µg/mL
